This is an account of results in US20210198201A1, “Orally Active Melanocortin Receptor-4 Compounds” (Palatin Technologies, Inc., priority 2018, published 2021).

Molecules are shown by their SMILES.

In assay [1] the test system is MC4r (−/−) mice. In words: Oral administration in MC4r knockout mice, feed intake and body weight. Type of assay: in vivo, mouse. As for the experimental part:
Feed intake and body weight was evaluated in MCr4 knockout (MC4r−/−) mice (Jackson Laboratories) compared to C57Bl/6 DIO mice. […] Feed weights were taken at time 0, 2, 6 and 24 hours post lights out. […] The change in body weight is shown in FIG. 4 starting on study day 5, the first day of administration of compound 7.1. […] Additionally, there was a statistically significant mean difference, 2.8%, 95% Cl (1.281, 4.253), and p value <0.0001 between DIO mice receiving compound 7.1 and MC4r (−/−) receiving compound 7.1.

For assay [2], the system named is C57BL/6 male DIO mice. In words: Body weight and food intake in vivo study in diet induced obese mice. On the set-up: species or system mouse. As for the experimental part:
Compound 7.1 was assessed in a body weight and food intake in vivo study in diet induced obese […] mice. C57BL/6 male DIO mice were utilized, that were 17 weeks of age on arrival. Animals were pre-conditioned on a high-fat diet for 11 weeks by Jackson Labs. […] Animals were single housed within a limited access rodent facility, and provided ad libitum with a commercial rodent diet and free access to drinking water. Animals were randomized into five groups, a vehicle group, three dose levels of compound 7.1 (3 mg/kg, 10 mg/kg and 30 mg/kg), and Peptide A, a positive control cyclic peptide of the formula Ac-Arg-cyclo(Orn-Asn-D-Phe-Arg-Trp-Glu)-NH2. Following three days of sham dosing, animals were dosed for three days, with vehicle or Compound 7.1 dosed orally once daily at within one hour of lights out in the AM, and Peptide A dosed by subcutaneous injection twice daily within one hour before lights out and six hours after lights out. Body weights were measured one hour prior to lights out, and feed weights were measured both one hour prior to lights out and six hours post lights out.
*p<0.05 vs. sham (vehicle control) using two-way ANOVA followed by Dunnett's post-test.
**p<0.01 vs sham (vehicle control) using two-way ANOVA followed by Dunnett's post-test.

Assay [3] has as its target MC4r (Homo sapiens, UniProt P32245). In words: cAMP functional study in human MC4r expression system approximating maximal physiologic receptor densities. On the set-up: host or cells: TREx-293. The settings on record: low receptor density human MC4r system. Type of assay: cell-based. On the procedure:
Assay for Agonist Activity. Accumulation of intracellular cAMP was examined as a measure of the ability of the peptides of the present invention to elicit a functional response in HEK-293 cells that express MC4-R. Confluent HEK-293 cells that express recombinant hMC4-R were detached from culture plates by incubation in enzyme-free cell dissociation buffer. Dispersed cells were suspended in Hanks' Balanced Salt Solution containing 10 mM HEPES (pH 7.5), 1 mM MgCl2, 1 mM glutamine, 0.5% albumin and 0.3 mM 3-isobutyl-1-methyl-xanthine (IBMX), a phosphodiesterase inhibitor. The cells were plated in 96-well plates at a density of 0.5×10^5 cells per well and pre-incubated for 10 minutes. Cells were exposed for 15 minutes at 37° C. to peptides of the present invention dissolved in DMSO (final DMSO concentration of 1%) at a concentration range of 0.05-5000 nM in a total assay volume of 200 μL. NDP-α-MSH was used as the reference agonist. cAMP levels were determined by an HTRF® cAMP cell-based assay system from Cisbio Bioassays utilizing cryptate-labeled anti-cAMP and d2-labeled cAMP, with plates read on a Perkin-Elmer Victor plate reader at […]. Data analysis was performed by nonlinear regression analysis with Graph-Pad Prism® software. The maximum efficacies of the test peptides of the present invention were compared to that achieved by the reference melanocortin agonist NDP-αMSH.
Low Receptor Density Systems. In functional studies preferably a human MC4r expression system approximating maximal human physiologic receptor densities is employed. In one aspect, a tetracycline-regulated mammalian expression system that uses regulatory elements from the E. coli Tn10-encoded tetracycline (Tet) resistance operon was employed (T-REx™ System, Invitrogen). By use of the T-REx™ System, expression of the gene of interest, the human MC4-R gene, was repressed in the absence of tetracycline or doxycycline and induced in the presence of tetracycline or doxycycline, with receptor density being dependent on the concentration of tetracycline or doxycycline. See generally Yao F. et al: Tetracycline repressor, tetR, rather than the tetR-mammalian cell transcription factor fusion derivatives, regulates inducible gene expression in mammalian cells. Hum. Gene Ther. 9:1939-1950 (1998), incorporated here by reference. Regulation was based on the binding of tetracycline or doxycycline, a derivative of tetracycline, to the Tet repressor and derepression of the promoter controlling expression of the human MC4-R gene. In general tetracycline or related regulators, such as tetracycline-derivatives, may be used to induce the gene expression. An inducible expression plasmid for expression of human MC4-R gene under the control of the strong human cytomegalovirus immediate-early (CMV) promoter and two tetracycline operator 2 (TetO2) sites was employed, together with a regulatory plasmid, pcDNA6/TR, which encodes the Tet repressor (TetR) under the control of the human SV40 promoter. Thus, expression of the human MC4-R gene from the inducible expression vector was controlled by the strong CMV promoter into which 2 copies of the tet operator 2 (TetO2) sequence had been inserted in tandem. The TetO2 sequences consisted of 2 copies of 19-nucleotide sequence separated by a 2 base pair spacer. Each 19 nucleotide TetO2 sequence served as the binding site for 2 molecules of the Tet repressor. The expression vector pcDNA4/TO/MC4R was introduced into TREx-293 (Invitrogen, R710-07), a cell line stably expressing the tetracycline repressor pcDNA6/TR using lipofectamin 2000 reagent (Invitrogen, 11668-019). Alternatively, both the expression vector and repressor are introduced into host cells by standard transformation or transfection methods.

Assay [4] concerns the target T1, hMC2r (Homo sapiens, UniProt Q01718).
T1 construct: expressed in transfected cells; host or cells: Cloudman M3
The experiment in a line: cAMP assay hMC2r (human recombinant Cloudman M3 cells, ACTH reference). Type of assay: cell-based. As for the experimental part: (§1) Melanocortin receptor binding and function of Compound 7.1 was tested. Ki binding values (nM) were calculated utilizing the percent inhibit of the binding of iodine-125 labeled NDP-α-MSH against B16-F1 cells for mMC1r, and human recombinant CHO cells for hMC3r, hMC4r and hMC5r, with the inhibition constant calculated using the Cheng Prusoff equation. Functional results (EC50 and efficacy) were calculated utilizing cAMP assays with NDP-α-MSH for mMC1r, hMC3r and hMC4r, ACTH for hMC2r, and α-MSH for hMC5r for agonist measures, with the same target cells for melanocortin receptors mMC1r, hMC3r, hMC4r and hMC5r, and human recombinant Cloudman M3 cells for hMC2r.

Assay [5] deals with T2, mMC1r (Mus musculus, UniProt Q01727).
T2 construct: endogenous in cells; host or cells: B16-F1
T2 sequence (Q01727 whole entry): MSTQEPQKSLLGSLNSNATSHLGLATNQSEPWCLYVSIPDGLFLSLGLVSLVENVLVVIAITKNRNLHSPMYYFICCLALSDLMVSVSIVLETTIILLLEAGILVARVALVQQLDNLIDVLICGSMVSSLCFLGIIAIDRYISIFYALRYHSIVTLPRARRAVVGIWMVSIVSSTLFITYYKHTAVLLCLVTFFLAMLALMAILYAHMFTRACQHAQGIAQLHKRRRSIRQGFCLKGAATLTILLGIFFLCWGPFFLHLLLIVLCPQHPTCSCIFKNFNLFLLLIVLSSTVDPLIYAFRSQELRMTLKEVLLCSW
In words: cAMP assay mMC1r (B16-F1 cells, NDP-α-MSH reference). Type of assay: cell-based. As for the experimental part:
as §1

The target of assay [6] is T3, hMC5r (Homo sapiens, UniProt P33032).
T3 construct: expressed in transfected cells; host or cells: CHO
T3 sequence (P33032 whole entry): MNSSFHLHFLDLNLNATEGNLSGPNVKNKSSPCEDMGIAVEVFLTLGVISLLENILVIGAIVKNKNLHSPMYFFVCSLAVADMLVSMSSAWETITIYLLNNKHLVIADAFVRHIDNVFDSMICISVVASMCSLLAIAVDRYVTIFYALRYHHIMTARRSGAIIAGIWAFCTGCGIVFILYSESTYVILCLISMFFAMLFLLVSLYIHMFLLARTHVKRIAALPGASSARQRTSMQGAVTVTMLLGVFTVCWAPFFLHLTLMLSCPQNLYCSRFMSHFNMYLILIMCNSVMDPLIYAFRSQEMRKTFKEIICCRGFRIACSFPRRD
In words: cAMP assay hMC5r (human recombinant CHO cells, α-MSH reference). Type of assay: cell-based. On the procedure: as §1

Chain of MC4r (P32245 whole entry): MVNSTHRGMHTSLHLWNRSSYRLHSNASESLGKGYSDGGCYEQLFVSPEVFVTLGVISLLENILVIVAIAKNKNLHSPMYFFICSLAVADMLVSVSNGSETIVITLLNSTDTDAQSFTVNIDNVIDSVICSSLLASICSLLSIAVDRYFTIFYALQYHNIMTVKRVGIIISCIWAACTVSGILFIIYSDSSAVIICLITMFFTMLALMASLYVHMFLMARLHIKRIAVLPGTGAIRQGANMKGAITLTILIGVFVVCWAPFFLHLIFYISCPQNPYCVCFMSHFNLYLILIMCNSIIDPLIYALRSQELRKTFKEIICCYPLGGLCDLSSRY
T1 sequence (Q01718 whole entry): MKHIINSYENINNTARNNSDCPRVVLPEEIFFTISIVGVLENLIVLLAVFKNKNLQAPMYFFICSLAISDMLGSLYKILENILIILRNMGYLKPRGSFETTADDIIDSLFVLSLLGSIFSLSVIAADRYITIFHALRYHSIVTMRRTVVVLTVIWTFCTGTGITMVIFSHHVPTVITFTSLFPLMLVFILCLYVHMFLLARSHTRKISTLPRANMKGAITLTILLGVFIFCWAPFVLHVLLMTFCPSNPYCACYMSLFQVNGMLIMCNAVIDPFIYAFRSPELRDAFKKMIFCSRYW
T1 sequence (Q9D159 whole entry partner): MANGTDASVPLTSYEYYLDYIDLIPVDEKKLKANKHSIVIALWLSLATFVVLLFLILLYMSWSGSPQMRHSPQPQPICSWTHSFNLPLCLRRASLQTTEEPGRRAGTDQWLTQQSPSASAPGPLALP

With `CC(=O)N1CCC(N(CC(C)C)N2CCN(C(=O)[C@@H](Cc3ccc(Cl)cc3)NC(=O)C(C)(C)N)CC2)CC1` [Compound 7.1, N-[(1R)-2-[4-[(1-acetyl-4-piperidyl)-isobutyl-amino]piperazin-1-yl]-1-[(4-chlorophenyl)methyl]-2-oxo-ethyl]-2-amino-2-methyl-propanamide], the “notable mean percentage body weight change difference between treated group and vehicle (in words)” value in assay [1] (30 mg/kg twice daily) is reported as “not”. For the same molecule, the “food consumption vs vehicle only (in words)” value in assay [1] (30 mg/kg twice daily oral gavage) is on record as “no differences”. For the same molecule, the “effect on body weight (in words)” value in assay [2] (3 mg/kg, day 3) is given as “body weight loss”; in assay [2] (daily treatment at 10 mg/kg and 30 mg/kg, day 1 to 3), “significant body weight loss”. Besides, the “effect on feed intake at 24 hours post lights out (in words)” value in assay [2] (30 mg/kg, entirety of the study, compared with sham animals) is given as “significantly inhibited feed intake”. The 50% effective concentration (EC50) in assay [3] is 23 nM; in assay [4], greater than 1000 nM; in assay [5] it was 460 nM; in assay [6], greater than 1000 nM. Besides, the Emax in assay [3] (read-out: relative efficacy, compared to NDP-α-MSH) is 33%.
